Laboratory results as given in paper doi:10.1101/2024.08.25.609621 (bioRxiv, 2024).
Converted amounts (≈) assume the structure as drawn. “And” between values parts separate entries of the source, which are not always exact repeats. Identical values can stand only once. Like-named read-outs stand apart in the source and are kept apart here.

Key:
[1] = system: Caco-2 cells; assay: in vitro
Protocol: (§1) Caco-2 cell plates were obtained commercially and were maintained for 21 days at 37°C with 5% CO2. Cells were washed with Hank’s Balanced Salt Solution (HBSS) with 5 mM HEPES for 30 minutes before starting the experiment. Test compound solutions are prepared by diluting DMSO stock into HBSS buffer, resulting in a final DMSO concentration of 0.1%. Prior to the assay, cell monolayer integrity was verified by […] electrical resistance (TEER) to ensure that wells have resistance above the acceptance cut-off (1 kΩ). Transport experiments were initiated by adding test compounds to the apical (75 μl) or basal (250 μl) side. Transport plates were incubated at 37°C in a humidified incubator with 5% CO2. Samples were taken from the donor and acceptor compartments after one hour and analyzed by liquid chromatography with tandem mass spectrometry (LC/MS/MS) using an AB Sciex API 4000 instrument, coupled to a Shimadzu LC-20AD LC Pump system. Samples were separated using a Waters Atlantis T3 dC18 reverse phase HPLC column (20 mm × 2.1 mm) at a flow rate of 0.5 ml/min. The mobile phase consisted of 0.1% formic acid in acetonitrile (solvent A) and 0.1% formic acid in water (solvent B).
(§2) Apparent permeability (Papp) values were calculated using the following equation: Papp=(dQ/dt)/A/C0 where dQ/dt is the initial rate of compound transport across the cell monolayer, A is the surface area of the filter membrane, and C0 is the initial concentration of the test compound, calculated for each direction using a four-point calibration curve by LC/MS/MS.
(§3) Net flux ratio between the two directional transports was calculated by the following equation: Ratio=PappB-A/PappA-B where PappB-A and PappA-B represent the apparent permeability of compounds from the basal-to-apical and apical-to-basal side of the cellular monolayer, respectively. Recovery was calculated based on the compound concentration at the end of the experiment, compared to that at the beginning of the experiment, adjusted for volumes.

[2] = in vitro; conditions: human; for Papp A→B at 1 h / Papp B→A at 1 h: Caco-2
Protocol: as §1, §2, §3

[3] = Kinetic solubility; conditions: pH 7.4, aqueous buffer, kinetic from dmso stock
[4] = Microsomal stability; assay type: in vitro ADME, mouse; conditions: for half-life at 1 µM / microsomal CLint at 1 µM: pH 7.4
Protocol: The assay was carried out in 96-well plates at 37°C. Reaction mixtures (25 μl) contained a final concentration of 1 μM compound, 0.5 mg/ml liver microsomes protein, and 1 mM NADPH and/or 1 mM UDPGA (with alamethicin) in 100 mM potassium phosphate (pH 7.4) with 3 mM MgCl2. After 0, 15, 30, and 60 minutes, 150 μl of quench solution (100% acetonitrile with 0.1% formic acid) with internal standard was transferred to each well. Reactions containing the same components except the NADPH were prepared as the negative control. Plates were sealed, vortexed, and centrifuged at 4°C for 15 minutes at 4000 rpm.
The extent of metabolism was calculated as the disappearance of compounds, compared to the 0-min time incubation.

[5] = target: T1, human macrodomain Targ1 (Homo sapiens, UniProt Q9Y530); assay: HTRF peptide displacement assay, Targ1; assay type: binding
T1 sequence (Q9Y530 with tags, fused parts or gaps): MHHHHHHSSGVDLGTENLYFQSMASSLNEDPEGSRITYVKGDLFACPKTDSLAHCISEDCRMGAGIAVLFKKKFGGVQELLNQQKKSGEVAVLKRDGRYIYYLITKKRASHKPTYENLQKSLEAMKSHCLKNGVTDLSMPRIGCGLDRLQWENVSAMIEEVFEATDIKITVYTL

[6] = target: T2, human macrodomain MacroD2 (Homo sapiens, UniProt A1Z1Q3); assay: HTRF peptide displacement assay, MacroD2; assay type: binding
T2 sequence (A1Z1Q3 with tags, fused parts or gaps): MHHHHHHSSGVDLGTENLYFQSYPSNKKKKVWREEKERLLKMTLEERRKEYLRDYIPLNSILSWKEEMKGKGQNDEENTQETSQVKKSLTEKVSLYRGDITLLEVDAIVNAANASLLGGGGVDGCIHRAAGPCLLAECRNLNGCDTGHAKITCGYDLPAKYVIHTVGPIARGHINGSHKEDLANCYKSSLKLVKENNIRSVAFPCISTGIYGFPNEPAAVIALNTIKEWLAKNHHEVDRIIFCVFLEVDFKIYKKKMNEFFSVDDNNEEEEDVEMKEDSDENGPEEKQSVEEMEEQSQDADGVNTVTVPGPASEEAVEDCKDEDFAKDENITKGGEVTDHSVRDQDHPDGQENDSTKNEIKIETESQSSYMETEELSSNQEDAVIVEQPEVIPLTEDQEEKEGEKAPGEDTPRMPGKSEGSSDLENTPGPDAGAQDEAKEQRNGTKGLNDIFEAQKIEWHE

[7] = target: SARS-CoV-2 NSP3 macrodomain (Mac1), P43 crystal form (Severe acute respiratory syndrome coronavirus 2, UniProt P0DTD1); assay type: binding; conditions: for 1-BDC: PanDDA background density correction; for Total number of conformations: ligand conformations modeled in Mac1 crystal structure
[8] = target: SARS-CoV-2 NSP3 macrodomain (Mac1) (Severe acute respiratory syndrome coronavirus 2, UniProt P0DTD1); assay: biochemical; assay type: binding
[9] = Caco-2, compound concentration 5
[10] = Caco-2, Caco-2 ratio B-A/A-B, net flux ratio
[11] = mouse, microsomes, 1 μM compound, 0.5 mg/ml microsomal protein, read-out: Mouse microsome T1/2
[12] = mouse microsomes, read-out: CLint (mouse)
[13] = crystal soak 10 mM, P43 crystals
[14] = crystal soak 10 mM, DMSO background map
[15] = occupancy estimate from PanDDA 1-BDC
[16] = preliminary screen, compound at 200 μM, mean of 3-4 technical replicates, read-out: % competition in HTRF assay
[17] = crystal soak concentration 10 mM, P43 crystals
[18] = crystal soak concentration 10 mM, DMSO background map
[19] = crystal soak concentration 20 mM, P43 crystals

O=C(Nc1ccc(C(=O)N[C@H]2c3cccc(O)c3C[C@H]2C(=O)O)cc1)NC1CC1 [AVI-92, reference compound]
Recover Rate (%) [1, 9]: 91%
Papp A→B at 1 h [2]: 0.04 ×10⁻⁶ cm/s
Papp B→A at 1 h [2]: 1.7 ×10⁻⁶ cm/s
efflux ratio at 1 h [2, 10]: 40.7
efflux ratio at 1 h ([2]; Caco-2, Ratio (B-A/A-B), Caco-2, compound concentration 5): 42.5
solubility kinetic at […] [3]: 524 µM (≈ 207 µg/mL)
CLint (mouse) (µl/min/mg protein), mean ([4]; mouse microsome stability): <11.6 µl/min/mg protein
T1/2 (min), mean ([4]; mouse microsome stability): >120 min
half-life at 1 µM [4, 11]: > 120 min
microsomal CLint at 1 µM [4, 12]: < 11.6 µL/min/mg

Cc1c[nH]c2ncnc(NCC3(O)CCCCC3)c12 [AVI-3761, 1-(((5-methyl-7H-pyrrolo[2,3-d]pyrimidin-4-yl)amino)methyl)cyclohexan-1-ol]
Recover Rate (%) ([1]; human, Caco-2, 1 h): 86%
Papp A→B at 1 h [2]: 21.5 ×10⁻⁶ cm/s
Papp B→A at 1 h [2]: 11.2 ×10⁻⁶ cm/s
IC50 [5]: > 1000 µM
binding to the human macrodomain Targ1 [5]: none
T1/2 (min), mean ([4]; mouse microsome stability): 7.49 min
half-life at 1 µM [4, 11]: 7.49 min
microsomal CLint at 1 µM [4, 12]: 185 µL/min/mg
IC50 [6]: > 1000 µM
binding to the human macrodomain MacroD2 [6]: none

CC(C)[C@H](CO)Nc1ncnc2[nH]ccc12 [AVI-1504, (2R)-3-Methyl-2-({7H-pyrrolo[2,3-d]pyrimidin-4-yl}amino)butan-1-ol]
CLint (mouse) (µl/min/mg protein), mean ([4]; mouse microsome stability): <11.6 µl/min/mg protein

C[C@H]1CCCN(c2ncnc3[nH]ccc23)[C@H]1CO [AVI-3716]
Recover Rate (%) [1, 9]: 104%
Papp A→B at 1 h [2]: 25.9 ×10⁻⁶ cm/s
Papp B→A at 1 h [2]: 18.9 ×10⁻⁶ cm/s
IC50 ([5]; dose-response, read-out: Human Targ1 HTRF assay: IC50): > 1000 µM
binding to the human macrodomain Targ1 ([5]; in words): none
solubility kinetic at […] ([3]; phosphate buffered saline): 523 µM (≈ 129 µg/mL)
microsomal CLint at 1 µM ([4]; liver microsomes, mouse microsomes, read-out: CLint (mouse) (µl/min/mg protein), mean): 44.4 µL/min/mg
Mouse microsome stability: T1/2 (min), mean ([4]; mouse microsomes): 31.2 min
microsomal CLint at 1 µM ([4]; mouse, microsomes): 44.4 µL/min/mg
half-life at 1 µM [4, 11]: 31.2 min
IC50 ([6]; dose-response, read-out: Human MacroD2 HTRF assay: IC50): > 1000 µM
binding to the human macrodomain MacroD2 ([6]; in words): none

Nc1ncnc2c1ncn2[C@@H]1O[C@H](COP(=O)(O)OP(=O)(O)OC[C@H]2O[C@@H](O)[C@H](O)[C@@H]2O)[C@@H](O)[C@H]1O.[Na].[Na] [ADP-ribose, reference compound]
Hill slope ([5]; HTRF dose-response fit, Targ1): 1.5

O=C1CCCN1Nc1ncnc2[nH]c3cc(F)ccc3c12 [AVI-219, reference compound]
Recover Rate (%) [1, 9]: 98%
Papp A→B at 1 h [2]: 10.6 ×10⁻⁶ cm/s
Papp B→A at 1 h [2]: 16.8 ×10⁻⁶ cm/s
efflux ratio at 1 h [2, 10]: 1.6
solubility kinetic at […] ([3]; phosphate buffered saline): 127 µM (≈ 36.2 µg/mL)
microsomal CLint at 1 µM ([4]; liver microsomes, mouse microsome stability, read-out: CLint (mouse) (µl/min/mg protein), mean): 53.1 µL/min/mg
half-life at 1 µM ([4]; liver microsomes, mouse microsome stability, read-out: T1/2 (min), mean): 26.1 min
microsomal CLint at 1 µM ([4]; mouse, microsomes): 53.1 µL/min/mg

O[C@H]1CC[C@@H]2CCN(c3ncnc4[nH]ccc34)[C@@H]21 [AVI-3664]
1-BDC [7]: 0.16
Pandda run, overall: Hit [7, 13]: TRUE
Pandda run, overall: Modeled [7, 13]: TRUE
PanDDA run, DMSO background map: 1-BDC [7, 14]: 0.16
PanDDA run, DMSO background map: Hit [7, 14]: TRUE
Total number of conformations [7]: 1
2*(1-BDC) (%) [7, 15]: 32%
X-ray crystallography: Binding site ([7]; site where the ligand is bound in the X-ray crystal structure): Adenosine
Hill slope ([8]; HTRF dose-response fit, Mac1): 1.2
inhibition at 200 µM ([8]; Single dose, concentration 200 μM, read-out: SARS CoV-2 macrodomain HTRF assay: Average % competition): 93%
SARS CoV-2 macrodomain HTRF assay: Hillslope ([8]; dose-response fit): 1.2
inhibition at 200 µM [8, 16]: 93%

O=C(O)C(F)(F)F.OC[C@H](Cc1ccc(O)cc1)Nc1ncnc2[nH]ccc12 [AVI-4066]
Occupancy difference (refined_occupancy - 2*(1-BDC)) [7]: 10
Refined ligand occupancy (%) [7]: 50%
1-BDC [7]: 0.2
X-ray crystal structure ([7]; X-ray crystal structure determined (TRUE)): TRUE
Hit (PanDDA run, overall) [7, 13]: TRUE
Hit (PanDDA run, DMSO background map) [7, 14]: TRUE
1-BDC (PanDDA run, DMSO background map) ([7]; crystal soak 10 mM, DMSO background map, event 1): 0.2 and 0.37 and 0.38
Total number of conformations [7]: 1
2*(1-BDC) (%) ([7]; occupancy estimate from PanDDA BDC): 40%
Refined TFA occupancy (%) ([7]; occupancy of TFA in the dataset of the named ligand): 20%
Binding site ([7]; site of ligand in X-ray crystal structure): Adenosine
Hill slope ([8]; HTRF dose-response fit, Mac1): 1.1
Hill slope ([8]; SARS CoV-2 macrodomain HTRF assay, dose-response): 1.1

O=C(Nc1ccsc1C(=O)O)c1ccc2c(c1)OCO2 [AVI-316]
1-BDC [7]: 0.07
X-ray crystal structure ([7]; TRUE = crystal structure with ligand determined): TRUE
PanDDA run, DMSO background map: 1-BDC ([7]; crystal soak concentration 10 mM, DMSO background map, event 1): 0.07
Pandda run, overall: Hit [7, 17]: TRUE
Pandda run, overall: Modeled [7, 17]: TRUE
PanDDA run, DMSO background map: Hit [7, 18]: TRUE
PanDDA run, DMSO background map: Modeled [7, 18]: TRUE
PanDDA run, DMSO background map: Hit ([7]; crystal soak concentration 20 mM, DMSO background map): TRUE
PanDDA run, DMSO background map: 1-BDC ([7]; crystal soak concentration 20 mM, DMSO background map, event 1): 0.12
Pandda run, overall: Hit [7, 19]: TRUE
Pandda run, overall: Modeling comment [7, 19]: Duplicate, not modeled
Total number of conformations [7]: 1
2*(1-BDC) (%) [7, 15]: 14%
Binding site ([7]; site of Mac1 where ligand bound in crystal structure): Adenosine
IC50 ([8]; Dose-response, SARS CoV-2 macrodomain HTRF assay, read-out: IC50): > 1000 µM
inhibition at 200 µM ([8]; Single dose, 200 μM, mean of three technical replicates, read-out: Average % competition): 29%
inhibition at 200 µM [8, 16]: 29%
